Test results as given in patent US20260001928A1 (CORTERIA PHARMACEUTICALS, priority 2022, published 2026).
*1 amine or outer side, *2 acyl side, *3 side chain or, on linkers, in order; H or OH if unused. Where a SMILES comes first, the peptide text is derived from it. Side-chain parts run from the residue outwards. [ ]: non-standard residue; d: D form. The star is where a group is joined. C20 diacid = O=C(O)CCCCCCCCCCCCCCCCCCC(=O)*; C16 diacid = O=C(O)CCCCCCCCCCCCCCC(=O)*; γGlu = O=C(O)[C@H](CCC(=O)[*:2])N[*:1]; Decanoyl = CCCCCCCCCC(=O)*; Nva = CCC[C@H](N)C(=O)O; Pentanoyl = CCCCC(=O)*; AEEA = NCCOCCOCC(=O)O; Aib = CC(C)(N)C(=O)O

Tests used:
human CRF2a receptor = biological target: T1, human CRF2a receptor (Homo sapiens, UniProt Q13324); experiment: Activity at human CRF2a receptor, cAMP functional assay in TeloHEAC cells; format: cell-based; settings: TeloHEAC cells stably expressing human CRF2a receptor, relative to urocortin 2 (100 nM = 100%)
T1 construct: expressed in transfected cells; host or cells: TeloHEAC cells
T1 sequence (Q13324 1-411): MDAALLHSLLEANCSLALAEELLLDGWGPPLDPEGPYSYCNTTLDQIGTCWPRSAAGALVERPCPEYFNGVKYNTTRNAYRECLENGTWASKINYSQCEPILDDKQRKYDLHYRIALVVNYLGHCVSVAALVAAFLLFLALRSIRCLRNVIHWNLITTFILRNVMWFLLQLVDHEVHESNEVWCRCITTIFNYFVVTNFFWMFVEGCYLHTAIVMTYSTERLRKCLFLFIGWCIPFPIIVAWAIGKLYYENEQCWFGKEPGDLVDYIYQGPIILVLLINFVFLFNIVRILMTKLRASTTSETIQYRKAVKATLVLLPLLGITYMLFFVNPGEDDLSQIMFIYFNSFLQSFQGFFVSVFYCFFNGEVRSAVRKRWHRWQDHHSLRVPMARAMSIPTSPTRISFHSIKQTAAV
In short: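 TeloHEAC cells stably expressing human CRF2a (10000 cells/well) were treated with 16-point 1:2 compound dilutions in HBSS/20 mM HEPES with IBMX for 30 min at 37° C. cAMP was read by HTRF (665/620 nm ratio). EC50 was the concentration giving 50% activation, with 100 nM urocortin 2 set as 100%.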

CFR1R receptor = biological target: T2, CFR1R receptor (Homo sapiens, UniProt P34998); experiment: Activity at anti-target CFR1R receptor, cAMP assay in CRF1R-overexpression CHO-K1 cells; format: cell-based; settings: 100% = Sauvagine at 100 nM; for EC50: cAMP
T2 construct: host or cells: CHO-K1 (clone 2)
T2 sequence (P34998 24-415): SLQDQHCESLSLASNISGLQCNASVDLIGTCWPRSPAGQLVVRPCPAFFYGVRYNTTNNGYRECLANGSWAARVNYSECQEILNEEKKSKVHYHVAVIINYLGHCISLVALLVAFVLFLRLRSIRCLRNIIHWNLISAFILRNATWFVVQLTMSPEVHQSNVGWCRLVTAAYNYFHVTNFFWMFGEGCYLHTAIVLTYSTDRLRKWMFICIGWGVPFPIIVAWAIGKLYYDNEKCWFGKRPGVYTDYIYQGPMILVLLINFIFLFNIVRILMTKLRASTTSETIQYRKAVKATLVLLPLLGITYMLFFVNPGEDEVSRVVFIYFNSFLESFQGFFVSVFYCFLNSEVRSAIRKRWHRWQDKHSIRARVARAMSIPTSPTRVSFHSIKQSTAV
In short: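 The method mirrors that used with TeloHAEC cells. Here, thawed clone 2 cells seeded at 4000 cells/well are tested, and 100 nM Sauvagine sets the top of the activation scale.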

Sprague Dawley rats = experiment: Effect on systolic blood pressure, telemetry in Sprague Dawley rats; format: in vivo, rat; settings: 0.1 mg/kg SC; for Systolic blood pressure (Mean) % change from baseline, 8 h / Systolic blood pressure (Mean) % change from baseline, 12 h / Systolic blood pressure (Mean) % change from baseline, 24 h: n=2; for Duration of action: last time point with an effect on BP still observed
Procedure: The effect of the compounds on systolic blood pressure was determined in telemetry studies in Sprague Dawley rats at a dosage of 0.1 mg/kg SC.
The rats were previously implanted with a telemetry device (DSI, Saint-Paul, USA, HD-S10, HD-S11 or HD S21) and allowed to recover for a minimum period of 2 weeks before treatment with vehicle or the different peptides. Blood pressure (BP) was recorded through a catheter inserted into the abdominal aorta. The device body was placed in the abdomen. The animals were allowed to recover from surgery for at least 10 days before the first administration of test drug or vehicle.
The chronically instrumented rats of the telemetry studies were individually housed immediately after surgery and then housed in pairs with a non-instrumented companion after recovery.
Systolic blood pressure was recorded for one hour before treatment (basal period). Thereafter, the subcutaneous administration of the test compound or its vehicle was performed, under continuous recording of the signal up to 48 hours, analysed and expressed as % change from baseline.
Representative data are presented in Table 13 below, in which “Duration of action” indicates the last time point for which an effect on BP was still observed (n=2 animals/peptide)

SMILES | EC50 (human CRF2a receptor) [nM] | Emax (% I) (CFR1R receptor) | Systolic blood pressure (Mean) % change from baseline, 8 h (Sprague Dawley rats) [%] | Systolic blood pressure (Mean) % change from baseline, 12 h (Sprague Dawley rats) [%] | Systolic blood pressure (Mean) % change from baseline, 24 h (Sprague Dawley rats) [%] | Duration of action (Sprague Dawley rats) [h] | EC50 (CFR1R receptor) [nM]
CCCCCCCCCC(=O)N[C@H](C(=O)N[C@@H](CC(C)C)C(=O)N[C@@H](CO)C(=O)N[C@@H](CC(C)C)C(=O)N[C@@H](CC(=O)O)C(=O)N[C@@H](C(=O)N1CCC[C@H]1C(=O)N[C@H](C(=O)N[C@@H](CCCCN)C(=O)N[C@@H](CC(C)C)C(=O)N[C@@H](CCCCNC(=O)CC[C@H](NC(=O)CCCCCCCCCCCCCCC(=O)O)C(=O)O)C(=O)N[C@@H](CCCCN)C(=O)N[C@H](C(=O)N[C@@H](CC(C)C)C(=O)N[C@@H](CC(C)C)C(=O)N[C@@H](CCC(=O)O)C(=O)N[C@@H](CCC(N)=O)C(=O)N[C@@H](CCC(=O)O)C(=O)N[C@@H](CCCCN)C(=O)N[C@@H](CCC(N)=O)C(=O)N[C@@H](CCCCN)C(=O)N[C@@H](CCCCN)C(=O)N[C@@H](CCC(N)=O)C(=O)N[C@@H](CCCNC(=N)N)C(=O)N[C@@H](CCC(=O)O)C(=O)N[C@@H](CCC(N)=O)C(=O)N[C@@H](C)C(=O)N[C@@H](CCC(=O)O)C(=O)N[C@H](C(=O)N[C@@H](CC(N)=O)C(=O)NC(C)(C)C(=O)N[C@@H](CCC(N)=O)C(=O)N[C@H](C(=O)N[C@@H](CC(C)C)C(=O)N[C@@H](C)C(=O)N[C@@H](CCC(N)=O)C(=O)N[C@H](C(N)=O)C(C)C)[C@@H](C)CC)[C@@H](C)O)[C@@H](C)CC)[C@@H](C)CC)C(C)C)C(C)C [compound 158] (Decanoyl-VLSLD[dV]PIKLK([γGlu-C16 diacid])KILLEQEKQKKQREQAETN[Aib]QILAQV-NH2) | 0.04 | 54 | −11 | −7 | 3 | 23 | 
CCCCC(=O)N[C@H](C(=O)N[C@@H](CC(C)C)C(=O)N[C@@H](CO)C(=O)N[C@@H](CC(C)C)C(=O)N[C@@H](CC(=O)O)C(=O)N[C@@H](C(=O)N1CCC[C@H]1C(=O)N[C@H](C(=O)N[C@@H](CCCCN)C(=O)N[C@@H](CC(C)C)C(=O)N[C@@H](CCCCNC(=O)CC[C@H](NC(=O)CCCCCCCCCCCCCCCCCCC(=O)O)C(=O)O)C(=O)N[C@@H](CCCCN)C(=O)N[C@H](C(=O)N[C@@H](CC(C)C)C(=O)N[C@@H](CC(C)C)C(=O)N[C@@H](CCC(=O)O)C(=O)N[C@@H](CCC(N)=O)C(=O)N[C@@H](CCC(=O)O)C(=O)N[C@@H](CCCCN)C(=O)N[C@@H](CCC(N)=O)C(=O)N[C@@H](CCCCN)C(=O)NC(C)(C)C(=O)N[C@@H](CCC(N)=O)C(=O)N[C@@H](CCCNC(=N)N)C(=O)N[C@@H](CCC(=O)O)C(=O)N[C@@H](CCC(N)=O)C(=O)N[C@@H](C)C(=O)N[C@@H](CCC(=O)O)C(=O)N[C@H](C(=O)N[C@@H](CC(N)=O)C(=O)NC(C)(C)C(=O)N[C@@H](CCC(N)=O)C(=O)N[C@H](C(=O)N[C@@H](CC(C)C)C(=O)N[C@@H](C)C(=O)N[C@@H](CCC(N)=O)C(=O)N[C@H](C(N)=O)C(C)C)[C@@H](C)CC)[C@@H](C)O)[C@@H](C)CC)[C@@H](C)CC)C(C)C)C(C)C [compound 220] (Pentanoyl-VLSLD[dV]PIKLK([γGlu-C20 diacid])KILLEQEKQK[Aib]QREQAETN[Aib]QILAQV-NH2) | 0.27 | 32 | −17 | −14 | −11 | >24 | > 250
CC[C@H](C)[C@H](NC(C)=O)C(=O)N[C@H](C(=O)N[C@@H](CC(C)C)C(=O)N[C@@H](CO)C(=O)N[C@@H](CC(C)C)C(=O)N[C@@H](CC(=O)O)C(=O)N[C@@H](C(=O)N1CCC[C@H]1C(=O)N[C@H](C(=O)N[C@@H](CCCCN)C(=O)N[C@@H](CC(C)C)C(=O)N[C@@H](CCCCNC(=O)COCCOCCNC(=O)CC[C@H](NC(=O)CCCCCCCCCCCCCCCCCCC(=O)O)C(=O)O)C(=O)N[C@@H](CCCCN)C(=O)N[C@H](C(=O)N[C@@H](CC(C)C)C(=O)N[C@@H](CC(C)C)C(=O)N[C@@H](CCC(=O)O)C(=O)N[C@@H](CCC(N)=O)C(=O)N[C@@H](CCC(=O)O)C(=O)N[C@@H](CCCCN)C(=O)N[C@@H](CCC(N)=O)C(=O)N[C@@H](CCCCN)C(=O)N[C@@H](CCCCN)C(=O)N[C@@H](CCC(N)=O)C(=O)N[C@@H](CCCNC(=N)N)C(=O)N[C@@H](CCC(=O)O)C(=O)N[C@@H](CCC(N)=O)C(=O)N[C@@H](C)C(=O)N[C@@H](CCC(=O)O)C(=O)N[C@H](C(=O)N[C@@H](CC(N)=O)C(=O)NC(C)(C)C(=O)N[C@@H](CCC(N)=O)C(=O)N[C@H](C(=O)N[C@@H](CC(C)C)C(=O)N[C@@H](C)C(=O)N[C@@H](CCC(N)=O)C(=O)N[C@H](C(N)=O)C(C)C)[C@@H](C)CC)[C@@H](C)O)[C@@H](C)CC)[C@@H](C)CC)C(C)C)C(C)C [compound 230] (Ac-IVLSLD[dV]PIKLK([AEEA-γGlu-C20 diacid])KILLEQEKQKKQREQAETN[Aib]QILAQV-NH2) | 0.16 | 30 | −15 | −16 | 3 | 23 | > 250
CCC[C@H](NC(=O)[C@H](CC(N)=O)NC(=O)[C@@H](NC(=O)[C@H](CCC(=O)O)NC(=O)[C@H](C)NC(=O)[C@H](CCC(N)=O)NC(=O)[C@H](CCC(=O)O)NC(=O)[C@H](CCCNC(=N)N)NC(=O)[C@H](CCC(N)=O)NC(=O)[C@H](CCCCN)NC(=O)[C@H](CCCCN)NC(=O)[C@H](CCC(N)=O)NC(=O)[C@H](CCCCN)NC(=O)[C@H](CCC(=O)O)NC(=O)[C@H](CCC(N)=O)NC(=O)[C@H](CCC(=O)O)NC(=O)[C@H](CC(C)C)NC(=O)[C@H](CC(C)C)NC(=O)[C@@H](NC(=O)[C@H](CCCCN)NC(=O)[C@H](CCCCNC(=O)CC[C@H](NC(=O)CCCCCCCCCCCCCCC(=O)O)C(=O)O)NC(=O)[C@H](CC(C)C)NC(=O)[C@H](CCCCN)NC(=O)[C@@H](NC(=O)[C@@H]1CCCN1C(=O)[C@H](NC(=O)[C@H](CC(=O)O)NC(=O)[C@H](CC(C)C)NC(=O)[C@H](CO)NC(=O)[C@H](CC(C)C)NC(=O)[C@@H](NC(=O)[C@@H](NC(C)=O)[C@@H](C)CC)C(C)C)C(C)C)[C@@H](C)CC)[C@@H](C)CC)[C@@H](C)O)C(=O)N[C@@H](CCC(N)=O)C(=O)N[C@H](C(=O)N[C@@H](CC(C)C)C(=O)N[C@@H](C)C(=O)N[C@@H](CCC(N)=O)C(=O)N[C@H](C(N)=O)C(C)C)[C@@H](C)CC [compound 52] (Ac-IVLSLD[dV]PIKLK([γGlu-C16 diacid])KILLEQEKQKKQREQAETN[Nva]QILAQV-NH2) | 0.17 | 7 | −28 | −17 | 4 | 23 | > 250
